# Experimental data reported in patent US8263823B2, “Immunocompetent xenograft model” (Adimmu Institute Inc., priority 2008, dated 2012).
# Columns and labels:
# [1] = system: CD8+ 2C transgenic T-cells; settings: chemotherapy (dacarbazine) alone, compared to the control mice
# Experimental: Lymph node (LN) cells and splenocytes (SP) were isolated from 2C TCR Tg mice. […] Cells were isolated from the inguinal LNs (DLNs), SP, or tumors at the time indicated. CFSE dilution was evaluated as described in Yu, at Id.
# In order to identify the effects of the chemotherapy on CD8+ T-cell priming, 5×10^5 B16-SIY melanoma cells were injected s.c. in the B6 mice. On day 17, 2×10^6 CFSE labeled naïve CD8+ 2C transgenic T-cells were adoptively transferred into the B16-SIY tumor bearing mice. The mice were treated locally with 20 Gy of radiation on day 0 following the transfer. 200 mg/kg dacarbazine i.p. was given two days after the adoptive transfer, and DLN and SP were harvested on day 21 to determine the CFSE dilution in the DLN and SP.
# [2] = system: 4T1 tumor cells; test: 4T1 breast tumor model, primary tumor growth, radiation therapy with or without paclitaxel; format: in vivo, mouse; settings: paclitaxel 20 mg/kg i.p. on days 7 and 14 after radiation therapy (15 Gy x3), Balb/c mice
# Experimental: The mice were irradiated using an x-ray generator (PCM 1000; Pantak) at the doses indicated by each experiment. Each mouse was protected with a lead cover with only tumor exposed, allowing local irradiation. For systemic chemotherapy, tumor-bearing mice were injected i.p. with 20 mg/kg paclitaxel (Ameristat Pharmaceuticals) for 4T1 bearing mice and 200 mg/kg dacarbazine (Bedford Laboratories) for B16 bearing mice.
# (§1) Cultured cancer cells were trypsinized, washed with media, and injected s.c. on the back. Tumor size was determined at 3-4 day intervals. Tumor volumes were measured along three orthogonal axes (a, b, and c) and calculated as tumor volume=abc/2.
# A 4T1 breast tumor model was used to show the results of the test on a different type of tumor. 1×10^5 4T1 tumor cells were injected and allowed to establish for 14 days. Balb/c control mice receive the breast cancer cells and no radiation, and other mice receive radiation therapy only, chemotherapy only, or a combination of radiation therapy followed by chemotherapy. The mice receiving radiation received a dose of 15 Gy on each of days 14, 15, and 16. On days 7 and 14 following radiation therapy, the mice receiving a combination of radiation therapy and chemotherapy received 20 mg/kg paclitaxel i.p.
# [3] = system: 4T1 tumor cells; test: 4T1 lung metastases colonogenic assay, radiation therapy with or without paclitaxel; format: in vivo, mouse
# Text: For surgical excision of primary 4T1 and B16-CCR7 tumors, mice were anesthetized, and tumors were resected with sterilized instruments. A colonogenic assay was used to evaluate metastases in 4T1 and B16-CCR7 tumors as described in B. A. Pulaski, S. Ostrand-Rosenberg, Curr Protoc Immunol Chapter 20, Unit 20 2 (May, 2001), incorporated herein by reference in its entirety. Lungs for 4T1 tumor or DLN for B16-CCR7 were collected, chopped and dissociated in DMEM supplemented with 10% FCS containing 1.5 mg/ml collagenase type D (Sigma-Aldrich) for 20 min in 37° C. shaking incubator. Single cell suspensions were plated at various dilutions in media supplemented with 10% FCS and selection drug. 4T1 is resistant to 6-thioguanine ([…]) and B16-CCR7 is resistant to G418 (0.7 mg/ml). Individual colonies representing micrometastases were counted after 5-10 days.
# 1×10^5 4T1 tumor cells were injected s.c. to the Balb/c mice, and the mice received 15 Gy of radiation on each days 12, 13, and 14.
# [4] = system: TUBO cells; test: TUBO tumor size after aHER2, DOXORUBICIN or their combination; format: in vivo, mouse; settings: DOXORUBICIN alone (5 or 15 mg/kg), intratumoral
# Experimental: as §1
# Combination therapy of aHER2 and a chemotherapeutic could show the same reduction in efficacy due to the immunosuppressive action of the chemotherapeutic. To show this, 1×10^6 TUBO cells were injected into Balb/c mice. After the tumor was well-established, the mice were separated into groups subject to the following groups of treatments: (i) 80 μg mIgG only, (ii) 80 μg aHER2 only, (iii) 5 mg/kg DOXORUBICIN only, (iv) 15 mg/kg DOXORUBICIN only, (v) a combination of 80 μg aHER2 and 5 mg/kg DOXORUBICIN, and (vi) a combination of 80 μg aHER2 and 15 mg/kg DOXORUBICIN. The antibodies and chemotherapeutic were administered intratumorally, the time injections and tumor size measurements were taken at 19 and 26 days after tumor injection.
smiles,measurement,setting,value
CN(C)/N=N/c1[nH]cnc1C(N)=O [dacarbazine],proliferation of cytotoxic lymphocytes (CTL),[1],did not elicit proliferation of cytotoxic lymphocytes (CTL)
CC(=O)O[C@H]1C(=O)[C@@]2(C)[C@H]([C@H](OC(=O)c3ccccc3)[C@]3(O)C[C@H](OC(=O)[C@H](O)[C@@H](NC(=O)c4ccccc4)c4ccccc4)C(C)=C1C3(C)C)[C@]1(OC(C)=O)CO[C@@H]1C[C@@H]2O [paclitaxel],tumor regression,[2],significantly hindered melanoma tumor regression and promoted tumor outgrowth
same,degree of metastases in the lungs,"[3]; chemotherapy (paclitaxel) alone, compared to the control mice",little effect on the degree of metastases in the lungs
same,increase in tumor colonies in the lungs,"[3]; paclitaxel 20 mg/kg i.p. on days 7 and 14 after radiation therapy (15 Gy x3), versus radiation therapy alone",100 fold
COc1cccc2c1C(=O)c1c(O)c3c(c(O)c1C2=O)C[C@@](O)(C(=O)CO)C[C@@H]3O[C@H]1C[C@H](N)[C@H](O)[C@H](C)O1 [DOXORUBICIN],tumor burden,[4],reduces tumor burden
